Assay results taken from patent US8058437B2, “(Pyrroloquinoxalinyl) pyrazinecarbohydrazide-oxalic acid co-crystal for treatment of cancer and other diseases” (Novelix Pharmaceuticals, Inc., priority 2008, dated 2011).
Where “and” joins values, the source holds several entries; their conditions need not be identical. Equal entries are not always repeated. Where two headings read alike, the source gives them in different places.

Experiments:
[1] = Pharmacokinetic experiments in rats (IV, oral suspension, oral solution); assay type: in vivo; conditions: rat; for concentration at 0.5 h / concentration at 1 h / concentration at 4 h / concentration at 8 h: oral; for bioavailability: adjusted for dose
Procedure: The oral suspension formulation was prepared by suspending the test article in 5% PEG-200/95% of a 0.5% solution of methylcellulose. The concentration of the test article was such that a dosing volume of 10 mL/kg delivered the intended dose level. The oral solution formulations of NVX-144 and NVX-412 were prepared by dissolving the test article in 10% by volume dimethyl acetamide, followed by 60% by volume PEG-400, and then adding slowly a solution of 30% Captisol® in 50 mM lactic acid to provide the remaining 30% of volume. The concentration of the test article was such that a dosing volume of 10 mL/kg delivered the intended dose level. The IV formulation of NVX-412 was prepared by dissolving the test article in 10% by volume dimethyl acetamide, followed by 10% by volume PEG-400, and then adding slowly a solution of 10% Captisol® in 50 mM lactic acid to provide the remaining 80% of volume. The concentration of the test articles was such that a dosing volume of 2.5 mL/kg delivered the intended dose level. The doses administered were based on the body weight of each animal taken shortly before dosing. The formulations were used immediately after preparation.
A total of 15 rats were assigned to the study. Five groups of three male rats each comprised the study. Each group was treated once by oral gavage or intravenous injection via the tail vein as specified in Table 3 below.
The animals were fasted overnight prior to dosing and the feed returned approximately 2 hours post-dosing. The dose for each animal was based on the most recent body weight. Oral doses were administered by gavage. Animals received 10 mL/kg per single oral dose. Intravenous doses were administered by tail vein injection. The dose for each animal was based on the most recent body weight. Animals were dosed at 2.5 mL/kg per single intravenous dose.
Blood was collected from the animals in Groups 1 through 5 for pharmacokinetic analysis. Approximately 0.3 mL of blood was collected in potassium EDTA tubes via the orbital plexus at four time points (30 minutes, 1 hour, 4 hours, and 8 hours post-dose) from each rat treated by the oral route, and the blood samples were processed to prepare plasma. Blood was collected at four time points (5 minutes, 30 minutes, 1 hour, and 2 hours post-dose) from each rat treated by the intravenous route, and the blood samples were processed to prepare plasma. Animals were terminated (without necropsy) following their final sample collection.
The whole blood samples were centrifuged (˜1500×g) for a minimum of 10 minutes in a refrigerated centrifuge (set at ˜5° C.). Plasma was prepared and transferred within 30 minutes of blood collection/centrifugation to appropriately labeled tubes. The tubes were then frozen and stored in the dark at ≦−70° C. until analysis. The plasma samples were analyzed by LC-MS/MS to determine the plasma concentrations of NVX-144 and NVX-412. Pharmacokinetic analysis of the plasma concentration data was conducted using non-compartmental analysis with WinNonlin Version 4.1.

[2] = Salt formation experiments / physical characteristics of solid forms; assay type: physicochemical; conditions: free base prepared from NVX-144.HCl; salt formation with acids
Procedure: Thus, a series of experiments was conducted to assess the preparation of NVX-144 salts of acids other than hydrochloric acid as possible novel compounds better suited to pharmaceutical preparations. […] As expected, NVX-144 base readily formed salts with strong organic acids.
Although oxalic acid co-crystals are rare, Trask et al. have reported a co-crystal of caffeine with oxalic acid (see Trask et al., “Pharmaceutical Cocrystallization: Engineering a Remedy for Caffeine Hydration,” Crystal Growth & Design, 5, 1013-21 (2005)).
Thus NVX-144 would not be expected to form a salt with oxalic acid, a relatively strong dicarboxylic acid.

[3] = male, plasma, po, 20 mg/kg, Group 2, PO-Suspension 20 mg/kg, Mean N=3
[4] = male, plasma, po, 20 mg/kg, Group 2, PO-Suspension 20 mg/kg, individual animals
[5] = male, plasma, po, 20 mg/kg, Group 4, PO-Solution 20 mg/kg, Mean N=3
[6] = male, plasma, po, 20 mg/kg, Group 4, PO-Solution 20 mg/kg, individual animals
[7] = Group 2, PO-Suspension 20 mg/kg, Mean N=3, listed as NVX-144 Free Base
[8] = Group 2, PO-Suspension 20 mg/kg, individual animals, listed as NVX-144 Free Base
[9] = Group 4, PO-Solution 20 mg/kg, Mean N=3, listed as NVX-144 Free base
[10] = Group 4, PO-Solution 20 mg/kg, individual animals, listed as NVX-144 Free base

concentration at 0.5 h ([1]; male, plasma, 20 mg/kg, Group 2, PO-Suspension 20 mg/kg, 0.5 hr, Mean): 479 ng/mL
concentration at 0.5 h ([1]; male, plasma, 20 mg/kg, Group 2, PO-Suspension 20 mg/kg, 0.5 hr, individual animals): 436 ng/mL
concentration at 1 h ([1]; male, plasma, 20 mg/kg, Group 2, PO-Suspension 20 mg/kg, 1 hr, Mean): 427 ng/mL
concentration at 4 h ([1]; male, plasma, 20 mg/kg, Group 2, PO-Suspension 20 mg/kg, 4 hr, Mean): 227 ng/mL
concentration at 4 h ([1]; male, plasma, 20 mg/kg, Group 2, PO-Suspension 20 mg/kg, 4 hr, individual animals): 270 ng/mL
concentration at 8 h ([1]; male, plasma, 20 mg/kg, Group 2, PO-Suspension 20 mg/kg, 8 hr, Mean): 10.9 ng/mL
concentration at 0.5 h ([1]; male, plasma, 20 mg/kg, Group 4, PO-Solution 20 mg/kg, 0.5 hr, Mean): 709 ng/mL
concentration at 0.5 h ([1]; male, plasma, 20 mg/kg, Group 4, PO-Solution 20 mg/kg, 0.5 hr, individual animals): 691 ng/mL
concentration at 1 h ([1]; male, plasma, 20 mg/kg, Group 4, PO-Solution 20 mg/kg, 1 hr, Mean): 643 ng/mL
concentration at 1 h ([1]; male, plasma, 20 mg/kg, Group 4, PO-Solution 20 mg/kg, 1 hr, individual animals): 570 ng/mL
concentration at 4 h ([1]; male, plasma, 20 mg/kg, Group 4, PO-Solution 20 mg/kg, 4 hr, Mean): 225 ng/mL
concentration at 4 h ([1]; male, plasma, 20 mg/kg, Group 4, PO-Solution 20 mg/kg, 4 hr, individual animals): 289 ng/mL
concentration at 8 h ([1]; male, plasma, 20 mg/kg, Group 4, PO-Solution 20 mg/kg, 8 hr, Mean): 31.5 ng/mL
AUC [1, 3]: 1800 ng·h/mL
AUC(0-inf) [1, 3]: 1830 ng·h/mL
Cmax ([1]; male, plasma, po, 20 mg/kg, Group 2, PO-Suspension 20 mg/kg, Mean N=3, read-out: Cmax): 487 ng/mL
half-life ([1]; male, plasma, po, 20 mg/kg, Group 2, PO-Suspension 20 mg/kg, Mean N=3, read-out: T ½ (converted)): 1.4 h
Tmax ([1]; male, plasma, po, 20 mg/kg, Group 2, PO-Suspension 20 mg/kg, Mean N=3, read-out: Tmax): 0.67 h
bioavailability ([1]; male, plasma, po, 20 mg/kg, Group 2, PO-Suspension 20 mg/kg, Mean N=3, versus mean IV AUCINF, read-out: Bioavailability): 34.7%
AUC [1, 4]: 1690 ng·h/mL
AUC(0-inf) [1, 4]: 1720 ng·h/mL
Cmax ([1]; male, plasma, po, 20 mg/kg, Group 2, PO-Suspension 20 mg/kg, individual animals, read-out: Cmax): 436 ng/mL
half-life ([1]; male, plasma, po, 20 mg/kg, Group 2, PO-Suspension 20 mg/kg, individual animals, read-out: T ½ (converted)): 1.66 h
Tmax ([1]; male, plasma, po, 20 mg/kg, Group 2, PO-Suspension 20 mg/kg, individual animals, read-out: Tmax): 0.5 to 1 h
bioavailability ([1]; male, plasma, po, 20 mg/kg, Group 2, PO-Suspension 20 mg/kg, individual animals, versus mean IV AUCINF, read-out: Bioavailability): 32.8%
AUC [1, 5]: 2330 ng·h/mL
AUC(0-inf) [1, 5]: 2520 ng·h/mL
Cmax ([1]; male, plasma, po, 20 mg/kg, Group 4, PO-Solution 20 mg/kg, Mean N=3, read-out: Cmax): 714 ng/mL
half-life ([1]; male, plasma, po, 20 mg/kg, Group 4, PO-Solution 20 mg/kg, Mean N=3, read-out: T ½ (converted)): 1.6 h
Tmax ([1]; male, plasma, po, 20 mg/kg, Group 4, PO-Solution 20 mg/kg, Mean N=3, read-out: Tmax): 0.67 h
bioavailability ([1]; male, plasma, po, 20 mg/kg, Group 4, PO-Solution 20 mg/kg, Mean N=3, versus mean IV AUCINF, read-out: Bioavailability): 46.1%
AUC [1, 6]: 2500 ng·h/mL
AUC(0-inf) [1, 6]: 2760 ng·h/mL
Cmax ([1]; male, plasma, po, 20 mg/kg, Group 4, PO-Solution 20 mg/kg, individual animals, read-out: Cmax): 691 ng/mL
Tmax ([1]; male, plasma, po, 20 mg/kg, Group 4, PO-Solution 20 mg/kg, individual animals, read-out: Tmax): 0.5 to 1 h
bioavailability ([1]; male, plasma, po, 20 mg/kg, Group 4, PO-Solution 20 mg/kg, individual animals, versus mean IV AUCINF, read-out: Bioavailability): 52.6%
plasma concentration ([1]; Group 2, PO-Suspension 20 mg/kg, 0.5 hr, individual animals, listed as NVX-144 Free Base): 428.07 ng/mL and 571.69 ng/mL
plasma concentration ([1]; Group 2, PO-Suspension 20 mg/kg, 4 hr, individual animals, listed as NVX-144 Free Base): 234.64 ng/mL and 175.82 ng/mL
AUC % Extrap ([1]; Group 2, PO-Suspension 20 mg/kg, Mean N=3): 1.32%
AUCINF [1, 7]: 1826.45 ng·h/mL
Cmax [1, 7]: 487.28 ng/mL
T ½ [1, 7]: 1.39 h
AUC % Extrap [1, 8]: 2.08% and 1.48% and 0.4%
AUCINF [1, 8]: 1789.00 ng·h/mL and 1965.88 ng·h/mL
AUCall [1, 8]: 1762.55 ng·h/mL and 1958.03 ng·h/mL
Cmax [1, 8]: 428.07 ng/mL and 597.75 ng/mL
T ½ [1, 8]: 1.49 h and 1.01 h
Tmax [1, 8]: 0.5 h and 1.0 h
bioavailability ([1]; Group 2, PO-Suspension 20 mg/kg, individual animals, versus mean IV AUCINF, listed as NVX-144 Free Base): 34.0% and 37.4%
plasma concentration ([1]; Group 4, PO-Solution 20 mg/kg, 0.5 hr, individual animals, listed as NVX-144 Free Base): 610.62 ng/mL and 824.32 ng/mL
plasma concentration ([1]; Group 4, PO-Solution 20 mg/kg, 1 hr, individual animals, listed as NVX-144 Free Base): 626.73 ng/mL and 731.54 ng/mL
plasma concentration ([1]; Group 4, PO-Solution 20 mg/kg, 4 hr, individual animals, listed as NVX-144 Free Base): 163.62 ng/mL and 221.82 ng/mL
AUC % Extrap ([1]; Group 4, PO-Solution 20 mg/kg, Mean N=3): 3.61%
AUCINF [1, 9]: 2426.28 ng·h/mL
Cmax [1, 9]: 713.93 ng/mL
T ½ [1, 9]: 1.56 h
AUC % Extrap [1, 10]: 9.41% and 0.41% and 1.00%
AUCINF [1, 10]: 1994.04 ng·h/mL and 2521.47 ng·h/mL
AUCall [1, 10]: 1985.89 ng·h/mL and 2496.24 ng·h/mL
Cmax [1, 10]: 626.73 ng/mL and 824.32 ng/mL
T ½ [1, 10]: 2.39 h and 1.01 h and 1.27 h
Tmax [1, 10]: 0.5 h and 1.0 h
bioavailability ([1]; Group 4, PO-Solution 20 mg/kg, individual animals, versus mean IV AUCINF, listed as NVX-144 Free base): 37.9% and 48.0%
oral absorption ([1]; administered as a solution or suspension): moderate
basicity [2]: very weak base
SMILES: O=C(NNc1nc2cc(F)ccc2n2cccc12)c1cnccn1 [NVX-144, N′-(7-fluoropyrrolo[1,2a]quinoxalin-4-yl)pyrazine-2-carbohydrazide, reference compound]
plasma concentration ([1]; Group 2, PO-Suspension 20 mg/kg, 1 hr, individual animals, listed as NVX-144 Free Base): 282.56 ng/mL and 401.49 ng/mL and 597.75 ng/mL
plasma concentration ([1]; Group 2, PO-Suspension 20 mg/kg, 8 hr, individual animals, listed as NVX-144 Free Base): 14.92 ng/mL and 12.33 ng/mL and 5.37 ng/mL
plasma concentration ([1]; Group 4, PO-Solution 20 mg/kg, 8 hr, individual animals, listed as NVX-144 Free Base): 75.29 ng/mL and 5.57 ng/mL and 13.76 ng/mL
